Measured values: patent US20180251847A1, “METHOD OF PREDICTING THE TUMOR RESPONSE TO DNA METHYLATION INHIBITORS AND ALTERNATIVE THERAPEUTIC REGIMEN FOR OVERCOMING RESISTANCE” (PALACKY UNIVERSITY, OLOMOUC, priority 2014, published 2018)
Structures can show the parent of a compound that is named as a salt. Where two headings read alike, the source gives them in different places.

What was measured:
Parameters in all cases: species or system human
[1] = test system: R1.4 (HCT116-RDAC); assay: MTT based cell survival assay, DAC resistant HCT116 clone R1.4; details: for IC50: read-out: Mean IC50; for fold change (resistance index): IC50 R1.4 / IC50 HCT116
Description: (§1) The DAC resistant HCT116 cell lines were developed using two methods.
(§2) The method is primarily based on reduction of yellow colored tetrazolium salt, 3-(4,5-dimethylthiazol-2-yl)-2,5-diphenyltetrazolium bromide (MTT) to insoluble purple colored formazan crystals by NAD(P)H-dependent oxidoreductase enzymes in mitochondria of the viable cell.
(§3) Cells in 80 μL of medium were plated in each of the experimental and the control wells, followed by addition of 20 μL medium with five-fold drug concentration to experimental wells. The wells with medium alone were included alongside as blank for absorbance readings. After 72 h of drug treatment, 10 μL MTT (Sigma-Aldrich) prepared in 1×PBS (5 mg/mL) was added to all wells including blank and control, and incubated until the purple formazan crystals were visible after which 100 μL of detergent (10% SDS, pH: 5.5) was added and the plates were incubated overnight to solubilize the formazan and the cellular material.
(§4) Cross resistance was determined as the fold increase, whereas, the sensitivity was determined as the fold decrease in the IC50 of the drugs for the resistant cell lines compared to their genetically identical drug sensitive counterpart.

[2] = test system: R1.3 (HCT116-RDAC); assay: MTT based cell survival assay, DAC resistant HCT116 clone R1.3; details: for IC50: read-out: Mean IC50; for fold change (resistance index): IC50 R1.3 / IC50 HCT116
Description: as §1, §2, §3, §4

[3] = test system: R2.1 (HCT116-RDAC); assay: MTT based cell survival assay, DAC resistant HCT116 clone R2.1; details: for IC50: R2.1, MTT, 72 h drug treatment; for fold change (resistance index): IC50 R2.1 / IC50 HCT116
Description: as §1, §2, §3, §4

[4] = test system: R1.1 (HCT116-RDAC); assay: MTT based cell survival assay, DAC resistant HCT116 clone R1.1; details: for IC50: read-out: Mean IC50; for fold change (resistance index): IC50 R1.1 / IC50 HCT116
Description: as §1, §2, §3, §4

[5] = test system: R1.2 (HCT116-RDAC); assay: MTT based cell survival assay, DAC resistant HCT116 clone R1.2; details: for IC50: read-out: Mean IC50; for fold change (resistance index): IC50 R1.2 / IC50 HCT116
Description: as §1, §2, §3, §4

[6] = test system: HCT116; assay: MTT based cell survival assay, parental HCT116; details: read-out: Mean IC50
Description: To study the mechanism of resistance towards DNA methylation inhibitor, 2′-deoxy-5-azacytidine, we used the human colorectal cancer cell line (HCT116), human promyelocytic leukemia cells (HL-60), and human breast adenocarcinoma cell line (MCF-7) obtained from American Type Culture Collection (Manassas, Va.). The cell lines were cultured in complete growth media (Sigma-Aldrich, St. Louis, Mo.), supplemented with fetal bovine serum (FBS, PAN-Biotech GmbH, Aidenbach, Germany), 100 U/mL penicillin (Biotika, Slovenská L'upča, Slovak Republic) and 50 μg/mL streptomycin (Sigma-Aldrich), and the cultures were maintained at 37° C. and 5% CO2, in a humidified incubator. The cell line, HCT116 was grown in McCoy's 5 A medium supplemented with 10% FBS and 3 mM L-glutamine (Sigma-Aldrich), HL-60 was grown in Iscove's Modified Dulbecco's Medium with 20% FBS, and MCF-7 was grown in RPMI-1640 medium with 10% FBS.
as §2, with “cell. The intensity of the purple color produced on solubilization of the formazan crystals is directly proportional to the number of viable cells (Meerloo J. V. et al., Methods in Molecular Biology 2011; 731, 237-45).” for “cell.”
as §3, with “To determine the IC50 of the epigenetic drugs (Tocris Bioscience, Bristol, United Kingdom), four independent experiments were performed using triplicate wells of 96 well plates. Cells” for “Cells”, “[…],” for “After 72 h of drug treatment,”
as §4

[7] = test system: R2.2 (HCT116-RDAC); assay: MTT based cell survival assay, DAC resistant HCT116 clone R2.2; details: for IC50: read-out: Mean IC50; for fold change (resistance index): IC50 R2.2 / IC50 HCT116
Description: as §1, §2, §3, §4

[8] = Homo sapiens, HCT-116, R1.4, MTT, 72 h drug treatment
[9] = Homo sapiens, HCT-116, R1.3, MTT, 72 h drug treatment
[10] = Homo sapiens, HCT-116, R1.1, MTT, 72 h drug treatment
[11] = Homo sapiens, HCT-116, R1.2, MTT, 72 h drug treatment
[12] = Homo sapiens, HCT-116, HCT116 parental, MTT, 72 h drug treatment
[13] = Homo sapiens, HCT-116, R2.2, MTT, 72 h drug treatment
[14] = HCT116 parental, MTT, 72 h drug treatment

SMILES	IC50 [1, 8]	fold change (resistance index) [1]	IC50 [2, 9]	fold change (resistance index) [2]	IC50 ([3]; Homo sapiens, HCT-116)	fold change (resistance index) [3]	IC50 [4, 10]	fold change (resistance index) [4]	IC50 [5, 11]	fold change (resistance index) [5]	IC50 [6, 12]	IC50 [7, 13]	fold change (resistance index) [7]	IC50 ([1]; R1.4, MTT, 72 h drug treatment)	IC50 ([2]; R1.3, MTT, 72 h drug treatment)	IC50 [3]	IC50 ([4]; R1.1, MTT, 72 h drug treatment)	IC50 ([5]; R1.2, MTT, 72 h drug treatment)	IC50 [6, 14]	IC50 ([7]; R2.2, MTT, 72 h drug treatment)	other results
COc1cc2nc(N3CCCN(C)CC3)nc(NC3CCN(Cc4ccccc4)CC3)c2cc1OC [BIX-01294]	3.05 µM	(1.20) fold	2.97 µM	(1.16) fold	3.4 µM	(1.33) fold	3 µM	(1.17) fold	3.02 µM	(1.19) fold	2.55 µM	3.22 µM	(1.26) fold	–	–	–	–	–	–	–	–
O=c1ncccn1[C@@H]1O[C@H](CO)[C@@H](O)[C@H]1O [Zebularine]	≥ 100 µM	(1.19) fold	≥ 100 µM	(1.19) fold	≥ 100 µM	(1.19) fold	≥ 100 µM	(1.19) fold	≥ 100 µM	(1.19) fold	84.2 µM	≥ 100 µM	(1.19) fold	–	–	–	–	–	–	–	–
COc1cc2c(cc1-c1c(C)noc1C)ncc1[nH]c(=O)n([C@H](C)c3ccccn3)c12 [I-BET 151, I-BET 151 hydrochloride]	–	–	–	–	3.16 µM	–	–	–	–	–	–	–	–	–	–	–	–	–	–	–	IC50 ([1]; Homo sapiens, HCT-116, 72 h): 3.58 µM; fold change (sensitivity index) ([1]; IC50 HCT116 / IC50 R1.4): (1.46) fold; IC50 ([2]; Homo sapiens, HCT-116, 72 h): 1.6 µM; fold change (sensitivity index) ([2]; IC50 HCT116 / IC50 R1.3): (3.28) fold; fold change (sensitivity index) ([3]; IC50 HCT116 / IC50 R2.1): (1.65) fold; IC50 ([4]; Homo sapiens, HCT-116, 72 h): 2.68 µM; fold change (sensitivity index) ([4]; IC50 HCT116 / IC50 R1.1): (1.95) fold; IC50 ([5]; Homo sapiens, HCT-116, 72 h): 5.18 µM; fold change (sensitivity index) ([5]; IC50 HCT116 / IC50 R1.2): (1.01) fold; IC50 ([6]; Homo sapiens, HCT-116, 72 h): 5.23 µM; IC50 ([7]; Homo sapiens, HCT-116, 72 h): 5.4 µM; fold change (sensitivity index) ([7]; IC50 HCT116 / IC50 R2.2): (0.97) fold
CCCCCCCCCCCCCCCc1cccc(O)c1C(=O)O [Ancardic acid, Anacardic acid]	–	(1.02) fold	–	(1.04) fold	–	(1.03) fold	–	(1.07) fold	–	(1.06) fold	–	–	(1.04) fold	122 µM	125 µM	124 µM	128 µM	127 µM	120 µM	125 µM	–
Cl.Nc1nccc2c1ncn2[C@@H]1C=C(CO)[C@@H](O)[C@H]1O [DZNep, 3-Deazaneplanocin A hydrochloride]	–	(30.34) fold	–	(30.34) fold	–	(30.34) fold	–	(30.34) fold	–	(30.34) fold	–	–	(30.34) fold	–	–	–	–	–	0.82 µM	–	–
O=C(O)c1ccc(O)c2ncccc12 [IOX1]	–	(1.96) fold	–	(1.80) fold	–	(1.70) fold	–	(1.41) fold	–	(2.15) fold	–	–	(1.93) fold	58.1 µM	53.2 µM	50.2 µM	41.6 µM	63.6 µM	29.6 µM	57 µM	–
C/C=C1\NC(=O)[C@H]2CSSCC/C=C/[C@H](CC(=O)N[C@H](C(C)C)C(=O)N2)OC(=O)[C@H](C(C)C)NC1=O [Romidepsin]	–	(1.14) fold	–	(1.18) fold	0.0054 µM	(1.95) fold	–	(1.14) fold	–	(1.77) fold	–	–	(2.64) fold	–	–	–	–	–	–	–	IC50 ([1]; Homo sapiens, HCT-116, 72 h): 0.0031 µM; IC50 ([2]; Homo sapiens, HCT-116, 72 h): 0.0033 µM; IC50 ([4]; Homo sapiens, HCT-116, 72 h): 0.0031 µM; IC50 ([5]; Homo sapiens, HCT-116, 72 h): 0.0049 µM; IC50 ([6]; Homo sapiens, HCT-116, 72 h): 0.0028 µM; IC50 ([7]; Homo sapiens, HCT-116, 72 h): 0.0073 µM
CCOC(=O)CCNc1cc(N2CCc3ccccc3CC2)nc(-c2ccccn2)n1 [GSK J4]	–	(1.34) fold	–	(1.39) fold	–	(2.11) fold	–	(1.52) fold	–	(1.30) fold	–	–	(1.87) fold	3.05 µM	3.18 µM	4.81 µM	3.45 µM	2.95 µM	2.28 µM	4.25 µM	–
Nc1ncn([C@@H]2O[C@H](CO)[C@@H](O)[C@H]2O)c(=O)n1 [AZA, 5-azacytidine]	14.9 µM	(4.92) fold	10.6 µM	(3.50) fold	12.3 µM	(4.07) fold	9.36 µM	(3.10) fold	11.7 µM	(3.87) fold	3.02 µM	14.5 µM	(4.19) fold	–	–	–	–	–	–	–	–
CC1=NN(c2ccc(C(=O)O)cc2)C(=O)/C1=C\c1ccc(-c2cc(C)c(C)cc2[N+](=O)[O-])o1 [C646]	–	(1.53) fold	–	(1.42) fold	–	(1.52) fold	–	(1.35) fold	–	(1.51) fold	–	–	(1.64) fold	51.3 µM	47.5 µM	51 µM	45.1 µM	50.6 µM	33.5 µM	55 µM	–
